Several values for one entry are separate records, joined by “and”; a condition that tells them apart may be missing. Equal entries are not always repeated.
How the values were obtained:
Male Fischer 344 rats = experiment: Active Avoidance Test (conditioned avoidance response), oral treatment; type: in vivo, rat; conditions: for ED50 / effect on avoidance responses: oral; for ED50: 60 minutes prior to the test, rat, avoidance rate variable, read-out: ED50 (dose reducing avoidance responses by 50% compared to basal values); for effect on avoidance responses: over the active doses tested (ST1469 0.75-6 mg/kg; ST2087 2-8 mg/kg; ST2472 0.5-2 mg/kg)
Description: Evaluation of the Antipsychotic Potency of ST1469 and ST1899 and their Respective Desmethyl Derivatives ST2087 and ST2472. Effect of Treatment in the Active Avoidance Test.
The administration of incremental doses of an antipsychotic drug in the rat causes the inhibition of the avoidance response and an increase in the number of escape responses without any increase in non-responses (failures). This modification of the avoidance behaviour of the animals is characteristic of the effect of the administration of a compound with antipsychotic activity, which selectively blocks the conditioned response within given dosage ranges. This behavioural assessment makes it possible to detect and determine the antipsychotic capacity of a product.
Male Fischer 344 rats weighing 180 g (Charles River) were used. The products ST1469 and ST2087 were administered to the animals orally, 60 minutes prior to the test. The product ST1469 was administered at doses of 0.75 mg/5 ml/kg (1.84 μmol/kg), 1.5 mg/5 ml/kg (3.69 μmol/kg), 3 mg/5 ml/kg (7.37 μmol/kg), and 6.0 mg/5 ml/kg (14.7 μmol/kg).
For the product ST2087 the following doses were used: 2 mg/5 ml/kg (6.25 μmol/kg), 3 mg/5 ml/kg (9.38 μmol/kg), 4 mg/5 ml/kg (12.50 μmol/kg), 6 mg/5 ml/kg ([…]) and 8 mg/5 ml/kg (25.01 μmol/kg).
To perform the avoidance behaviour assessment test, a piece of equipment (Ugo Basile) was used consisting of a plastic cage divided into two compartments by a partition wall with an opening in it allowing communication between the two sectors. Each of the two sectors can be illuminated by a 10-Watt lamp placed above a plexiglass cover covering the cage. A programming device permits the regulation of the duration and frequency of the un-conditioned and discriminatory stimuli, and a computerised system acquires the experimental data. During the study the discriminatory stimulus (light was delivered 3 seconds prior to the unconditioned stimulus (0.3 mA electric shock for 4 seconds). One test per minute was performed in each session making a total of 20 tests per day. One session per day administered.
The procedure consists in a 1 minute period of familiarisation of the rats in the test cage, followed by the series of tests the start of which is signalled by the light stimulus; the discriminatory stimulus is followed, a few seconds later, by the administration of an electric shock. The rats can avoid the shock by escaping into the adjoining compartment. The responses produced after switching on the light and before the electric shock interrupt the discriminatory stimulus and are considered “avoidances”; the responses produced during the shock period terminate both the discriminatory stimulus and the unconditioned stimulus and are considered “escapes”; non-avoidances are considered “failures”.
Prior to the treatment with the study compounds, the animals were selected in relation to their ability to acquire the task. Admitted to the test assessing the effect of treatment were those rats that produced at least 75% of avoidances in the basal tests.
The results were expressed as means and standard errors. On the basis of the number of conditioned responses (avoidances), the dose of product capable of reducing the value of this variable by 50% (ED50) compared to basal values was calculated by means of non-linear regression using the GraphPad Prism data analysis program.

[1] = In vitro metabolic stability / metabolic profile in rat hepatic microsomes; type: in vitro ADME, Rat (Sprague Dawley); conditions: for metabolic profile (metabolites formed): rat hepatic microsomes 0.5 mg/ml, 10 μg/ml test item, 37° C. up to 120 minutes
Protocol: (§1) In this study the metabolic profiles of ST1899 and its metabolite ST2472 were determined in rat, mouse and monkey microsomes.
(§2) ST1899 and ST2472 were separately incubated with the hepatic microsomes. Separate experiments were carried out for each animal species investigated. For each experiment, in addition to the test item, 7-ethoxycoumarin (Sigma-Aldrich) was also incubated as a probe for evaluating the metabolic activity of the microsomes: 7-hydroxycoumarin was identified on the basis of the retention times in comparison with those of synthesized standard and used as marker of oxidative metabolism Both the test item and the 7-ethoxycoumarin were incubated at 37° C. up to 120 minutes.
(§3) MgCl2, β-D-glucose-6-phosphate, βNADP and Glucose-6-phosphate dehydrogenase were used for preparing the NADPH regenerating solution (NRS). 250 μl of 0.1 M pH 7.4 KH2PO4 buffer, 100 μl of NRS and 50 μl of test item (or 7-ethoxycoumarin) standard solution were added to 2 ml Eppendorf test tubes. In the samples, incubated either without microsomes or test items, an equal volume of 0.1 M pH 7.4 KH2PO4 buffer was added.
(§4) The reaction was started by adding 100 μl of the microsomal suspension to the samples and stopped at selected times by adding 500 μl of methanol. Samples were shaken and centrifuged at 8000 RPM for 10 minutes at 4° C. Supernatants were used for the HPLC analysis. 7-ethoxycoumarin, ST1899 and ST2472 were analyzed according to the HPLC methods described below.

[2] = In vitro metabolic stability / metabolic profile in mouse hepatic microsomes; type: in vitro ADME, Mouse (CD1); conditions: for metabolic profile (metabolites formed): mouse hepatic microsomes 0.5 mg/ml, 10 μg/ml test item, 37° C. up to 120 minutes
Protocol: as §1, §2, §3, §4

[3] = In vitro metabolic stability / metabolic profile in monkey hepatic microsomes; type: in vitro ADME, Monkey (Cynomolgus); conditions: for metabolic profile (metabolites formed): monkey hepatic microsomes 0.5 mg/ml, 10 μg/ml test item, 37° C. up to 120 minutes
Protocol: as §1, §2, §3, §4

[4] = Pharmacokinetics after oral administration of a 60 μmol/kg dose in the rat; type: in vivo
Description: Pharmacokinetics of the Compound ST1469 and its Corresponding Des Methyl Derivative ST2087
Effect of the Oral Administration of a 60 μmol/kg Dose of Each Product in the Rat
Administration of ST1469 in the Rat (Table 1).
Administration of ST2087 in the Rat (Table 1)

[5] = 60 umol/kg, analyte = administered product, oral 60 μmol/kg, rat, plasma, mean

Row | SMILES | effect on behaviour of the animals (Male Fischer 344 rats; ST2472 at 0.25 mg/kg (0.88 μmol/kg)) | ED50 (Male Fischer 344 rats) | effect on avoidance responses (Male Fischer 344 rats) | metabolic stability compared with ST1899 ([1]; rat hepatic microsomes) | metabolic profile (metabolites formed) [1] | metabolic stability compared with ST1899 ([2]; mouse hepatic microsomes) | metabolic profile (metabolites formed) [2] | metabolic stability compared with ST1899 ([3]; monkey hepatic microsomes) | metabolic profile (metabolites formed) [3] | AUC [4, 5] | Cmax [4, 5] | half-life [4, 5] | concentrations at the systemic level when administered as such ([4]; oral ST2087 60 μmol/kg versus ST2087 formed after ST1469, rat) | Tmax ([4]; rat, plasma, po, 60 umol/kg, analyte = administered product, oral 60 μmol/kg, mean)
1 | C1=C(N2CCNCC2)c2ccccc2Sc2cccn21 [ST2472, 9-Piperazin-1-yl-pyrrolo[2,1-b][1,3]benzothiazepine] | does not significantly modify the behaviour of the animals | 1.43 mg/kg and 5.05 µmol/kg | causes a progressive reduction of the avoidance responses and an increase in escapes | metabolically more stable than ST1899 | almost exclusively metabolized to M2 | metabolically more stable than ST1899 | metabolized almost exclusively to M2 | metabolically more stable than ST1899 | the main metabolite obtained was M3 | – | – | – | – | –
2 | Clc1ccc2c(c1)C(N1CCNCC1)Cn1cccc1S2 (racemic) [ST2087, (±)-7-chloro-9-(piperazin-1-yl)-9,10-dihydropyrrolo[2,1-b][1,3]-benzothiazepine] | – | 3.27 mg/kg and 10.2 µmol/kg | capable of reducing the production of avoidance responses | – | – | – | – | – | – | 32.2 µM·h | 4.09 µM | 4.4 h | much higher concentrations than those measured after its formation as a result of administration of ST1469 | ≤ 2 h
3 | CN1CCN(C2=Cn3cccc3Sc3ccccc32)CC1 [ST1899, 9-(4-methylpiperazin-1-yl)-pyrrolo[2,1-b]-[1,3]benzothiazepine, reference compound] | – | 1.09 mg/kg and 3.66 µmol/kg | – | – | extensively metabolized to ST2472 | – | metabolized mainly to M1 | – | metabolized to ST2472 and to the metabolites M3 and M4 | – | – | – | – | –
